Literature values, collected in patent publication US20210236593A1, “METHODS OF SUPPORTING WEIGHT MAINTENANCE BY DECREASING THE ACTIVITY OF FAM46A” (SOCIETE DES PRODUITS NESTLE S.A., priority 2016, published 2021).
“Also recorded” adds a separate entry of the source. Counter-ions that a name gives are not always drawn.

Test system: FAM46A
Conditions: effect of the chemical on FAM46A expression

Row | SMILES | Interaction Actions
1 | CC(/C=C/C(=O)NO)=C\[C@@H](C)C(=O)c1ccc(N(C)C)cc1 [Trichostatin A, reference compound] | Decreases expression
2 | NC(=O)N1c2ccccc2C=Cc2ccccc21 [Carbamazepine, reference compound] | Affects expression
3 | O=C(NN=C1CCCCC1)C(=O)NN=C1CCCCC1 [Cuprizone, reference compound] | Decreases expression
4 | CC1=C(/C=C/C(C)=C/C=C/C(C)=C/C(=O)O)C(C)(C)CCC1 [Tretinoin, reference compound] | Decreases expression
5 | CCOC(=O)/C=C\C(=O)OCC [Diethyl maleate] | Decreases expression
6 | CC(=O)Nc1ccc(O)cc1 [Acetaminophen, reference compound] | Affects expression
7 | CCc1nn(CCCN2CCN(c3cccc(Cl)c3)CC2)c(=O)n1CCOc1ccccc1 [Nefazodone, reference compound] | Decreases expression
8 | O=C(O)C(F)(F)C(F)(F)C(F)(F)C(F)(F)C(F)(F)C(F)(F)C(F)(F)C(F)(F)C(F)(F)C(F)(F)F [Perfluoro-n-undecanoic acid] | Decreases expression
9 | CCCC(CCC)C(=O)O [Valproic Acid, reference compound] | Decreases expression
10 | N#Cc1nn(-c2c(Cl)cc(C(F)(F)F)cc2Cl)c(N)c1[S+]([O-])C(F)(F)F (stereo not drawn) [Fipronil] | Decreases expression
11 | Clc1cc2c(cc1Cl)Oc1cc(Cl)c(Cl)cc1O2 [Tetrachlorodibenzodioxin] | Decreases expression
12 | CCCCOC(=O)c1ccccc1C(=O)OCCCC [Dibutyl Phthalate] | Decreases expression
13 | OO [Hydrogen Peroxide] | Affects expression; also recorded: Decreases expression
14 | c1ccc2c(c1)cc1ccc3cccc4ccc2c1c34 [Benzo(a)pyrene] | Decreases expression
15 | Cc1oncc1C(=O)Nc1ccc(C(F)(F)F)cc1 [Leflunomide, reference compound] | Decreases expression
16 | C=CC1(C)OC(=O)N(c2cc(Cl)cc(Cl)c2)C1=O (stereo not drawn) [Vinclozolin] | Affects expression; also recorded: Decreases expression
17 | CN(C)C(=O)Nc1ccc(Cl)c(Cl)c1 [Diuron] | Decreases expression
18 | [CH3][Hg][Cl] [Methylmercuric chloride] | Decreases expression
19 | Cc1cccc(Nc2cc(Cl)nc(SCC(=O)O)n2)c1C [Pirinixic acid, reference compound] | Decreases expression
20 | Nc1ccn([C@@H]2O[C@H](CO)[C@@H](O)[C@@H]2O)c(=O)n1 [Cytarabine, reference compound] | Decreases expression
21 | Nc1ccccc1NC(=O)c1ccc(CNC(=O)OCc2cccnc2)cc1 [Entinostat, reference compound] | Decreases expression
